# Experimental data taken from patent US20180200257A1, “METHODS FOR THE TREATMENT OF INFLAMMATORY DISORDERS” (Galapagos NV, priority 2015, published 2018).
# System: subjects with moderately to severely active RA who have an inadequate response to methotrexate (MTX)
# Experiment: Study 1 (add-on to MTX) - Creatinine levels
# Format: in vivo, human
# Protocol: Double-blind, placebo-controlled add on study in subjects with moderately to severely active RA who have an inadequate response to methotrexate (MTX) (oral or parenteral).
# 595 subjects randomized to one of 6 dose regimens of Compound 1 (dosed as [Compound 1:HCl:3H2O]) (3 dose levels administered either once or twice daily) or placebo on top of each subject's stable dose of MTX.
# Compound 1 (dosed as [Compound 1:HCl:3H2O]) is dosed for twelve weeks once daily (q.d.) (50 mg, 100 mg or 200 mg) or twice daily (b.i.d.) (25 mg, 50 mg or 100 mg); or placebo.
# At Week 12, the subjects on placebo who have not achieved 20% improvement in swollen joint count (SJC66) and tender joint count (TJC68) are re-randomized automatically to receive Compound 1 (dosed as a [Compound 1:HCl:3H2O]) either at 100 mg q.d. or 50 mg b.i.d. doses in a blinded fashion; subjects on 50 mg q.d. who have not achieved 20% improvement in SJC66 and TJC68 will be assigned to 100 mg q.d. and subjects on 25 mg b.i.d. that have not achieved a 20% improvement in SJC66 and TJC68 will be assigned to 50 mg b.i.d. Subjects who switch treatment at week 12 are handled as if they discontinued at week 12 for the purpose of statistical analysis, whereas subjects in the other groups will maintain their randomized treatment until Week 24.
# Creatinine levels determination is available at Quest Diagnostics, Clinical Trials, Quest House, 125-135 Staines Road, Hounslow, Middlesex, TW3 3JB, United Kingdom under Catalogue n# 82565. For Study 3, the data are obtained at BARC Europe, 3B,Industrie Park, Zwijnaarde, B-9052 Ghent, Belgium.
# The Enzymatic method is based on the determination of sarcosine after conversion of creatinine with the aid of creatininase, creatinase, and sarcosine oxidase. The liberated hydrogen peroxide reacts with 4-aminophenazone and HTIB to form a quinone imine chromogen. The reaction is catalyzed by peroxidase. The color intensity is directly proportional to concentration of creatinine present and can be measured photometrically.
# [1] = 2 × 25 mg b.i.d. (N = 86), week 0
# [2] = 2 × 25 mg b.i.d. (N = 86), week 1
# [3] = 2 × 25 mg b.i.d. (N = 86), week 2
# [4] = 2 × 25 mg b.i.d. (N = 86), week 4
# [5] = 2 × 25 mg b.i.d. (N = 86), week 8
# [6] = 2 × 25 mg b.i.d. (N = 86), week 12
# [7] = 2 × 50 mg b.i.d. (N = 85), week 0
# [8] = 2 × 50 mg b.i.d. (N = 85), week 1
# [9] = 2 × 50 mg b.i.d. (N = 85), week 2
# [10] = 2 × 50 mg b.i.d. (N = 85), week 4
# [11] = 2 × 50 mg b.i.d. (N = 85), week 8
# [12] = 2 × 50 mg b.i.d. (N = 85), week 12
# [13] = 2 × 100 mg b.i.d. (N = 84), week 0
# [14] = 2 × 100 mg b.i.d. (N = 84), week 1
# [15] = 2 × 100 mg b.i.d. (N = 84), week 2
# [16] = 2 × 100 mg b.i.d. (N = 84), week 4
# [17] = 2 × 100 mg b.i.d. (N = 84), week 8
# [18] = 2 × 100 mg b.i.d. (N = 84), week 12
# [19] = continued 50 mg q.d. (N = 63), week 0
# [20] = continued 50 mg q.d. (N = 63), week 1
# [21] = continued 50 mg q.d. (N = 63), week 2
# [22] = continued 50 mg q.d. (N = 63), week 24
# [23] = placebo switched to 50 mg b.i.d. at week 12 (N = 15), week 16
# [24] = placebo switched to 50 mg b.i.d. at week 12 (N = 15), week 20
# [25] = placebo switched to 50 mg b.i.d. at week 12 (N = 15), week 24
smiles,measurement,setting,value
"O=C(Nc1nc2cccc(-c3ccc(CN4CCS(=O)(=O)CC4)cc3)n2n1)C1CC1 [Compound 1, cyclopropanecarboxylic acid {5-[4-(1,1-dioxo-thiomorpholin-4-ylmethyl)-phenyl]-[1,2,4]triazolo[1,5-a]pyridin-2-yl}-amide]",Creatinine Mean CFB,"50 mg q.d. (N = 82), week 0",0 µmol/L
same,Creatinine Mean percentage CFB,"50 mg q.d. (N = 82), week 0",0%
same,Creatinine Mean CFB,"50 mg q.d. (N = 82), week 1",1 µmol/L
same,Creatinine Mean percentage CFB,"50 mg q.d. (N = 82), week 1",3%
same,Creatinine Mean CFB,"50 mg q.d. (N = 82), week 2",1 µmol/L
same,Creatinine Mean percentage CFB,"50 mg q.d. (N = 82), week 2",2%
same,Creatinine Mean CFB,"50 mg q.d. (N = 82), week 4",1 µmol/L
same,Creatinine Mean percentage CFB,"50 mg q.d. (N = 82), week 4",3%
same,Creatinine Mean CFB,"50 mg q.d. (N = 82), week 8",2 µmol/L
same,Creatinine Mean percentage CFB,"50 mg q.d. (N = 82), week 8",4%
same,Creatinine Mean CFB,"50 mg q.d. (N = 82), week 12",2 µmol/L
same,Creatinine Mean percentage CFB,"50 mg q.d. (N = 82), week 12",3%
same,Creatinine Mean CFB,"100 mg q.d. (N = 85), week 0",0 µmol/L
same,Creatinine Mean percentage CFB,"100 mg q.d. (N = 85), week 0",0%
same,Creatinine Mean CFB,"100 mg q.d. (N = 85), week 1",2 µmol/L
same,Creatinine Mean percentage CFB,"100 mg q.d. (N = 85), week 1",4%
same,Creatinine Mean CFB,"100 mg q.d. (N = 85), week 2",3 µmol/L
same,Creatinine Mean percentage CFB,"100 mg q.d. (N = 85), week 2",5%
same,Creatinine Mean CFB,"100 mg q.d. (N = 85), week 4",2 µmol/L
same,Creatinine Mean percentage CFB,"100 mg q.d. (N = 85), week 4",4%
same,Creatinine Mean CFB,"100 mg q.d. (N = 85), week 8",2 µmol/L
same,Creatinine Mean percentage CFB,"100 mg q.d. (N = 85), week 8",4%
same,Creatinine Mean CFB,"100 mg q.d. (N = 85), week 12",4 µmol/L
same,Creatinine Mean percentage CFB,"100 mg q.d. (N = 85), week 12",7%
same,Creatinine Mean CFB,"200 mg q.d. (N = 86), week 0",0 µmol/L
same,Creatinine Mean percentage CFB,"200 mg q.d. (N = 86), week 0",0%
same,Creatinine Mean CFB,"200 mg q.d. (N = 86), week 1",3 µmol/L
same,Creatinine Mean percentage CFB,"200 mg q.d. (N = 86), week 1",6%
same,Creatinine Mean CFB,"200 mg q.d. (N = 86), week 2",3 µmol/L
same,Creatinine Mean percentage CFB,"200 mg q.d. (N = 86), week 2",6%
same,Creatinine Mean CFB,"200 mg q.d. (N = 86), week 4",4 µmol/L
same,Creatinine Mean percentage CFB,"200 mg q.d. (N = 86), week 4",7%
same,Creatinine Mean CFB,"200 mg q.d. (N = 86), week 8",4 µmol/L
same,Creatinine Mean percentage CFB,"200 mg q.d. (N = 86), week 8",7%
same,Creatinine Mean CFB,"200 mg q.d. (N = 86), week 12",4 µmol/L
same,Creatinine Mean percentage CFB,"200 mg q.d. (N = 86), week 12",8%
same,Creatinine Mean CFB,[1],0 µmol/L
same,Creatinine Mean percentage CFB,[1],0%
same,Creatinine Mean CFB,[2],1 µmol/L
same,Creatinine Mean percentage CFB,[2],2%
same,Creatinine Mean CFB,[3],1 µmol/L
same,Creatinine Mean percentage CFB,[3],2%
same,Creatinine Mean CFB,[4],0 µmol/L
same,Creatinine Mean percentage CFB,[4],2%
same,Creatinine Mean CFB,[5],2 µmol/L
same,Creatinine Mean percentage CFB,[5],3%
same,Creatinine Mean CFB,[6],1 µmol/L
same,Creatinine Mean percentage CFB,[6],3%
same,Creatinine Mean CFB,[7],0 µmol/L
same,Creatinine Mean percentage CFB,[7],0%
same,Creatinine Mean CFB,[8],3 µmol/L
same,Creatinine Mean percentage CFB,[8],5%
same,Creatinine Mean CFB,[9],4 µmol/L
same,Creatinine Mean percentage CFB,[9],6%
same,Creatinine Mean CFB,[10],3 µmol/L
same,Creatinine Mean percentage CFB,[10],5%
same,Creatinine Mean CFB,[11],3 µmol/L
same,Creatinine Mean percentage CFB,[11],6%
same,Creatinine Mean CFB,[12],4 µmol/L
same,Creatinine Mean percentage CFB,[12],7%
same,Creatinine Mean CFB,[13],0 µmol/L
same,Creatinine Mean percentage CFB,[13],0%
same,Creatinine Mean CFB,[14],5 µmol/L
same,Creatinine Mean percentage CFB,[14],8%
same,Creatinine Mean CFB,[15],4 µmol/L
same,Creatinine Mean percentage CFB,[15],8%
same,Creatinine Mean CFB,[16],4 µmol/L
same,Creatinine Mean percentage CFB,[16],8%
same,Creatinine Mean CFB,[17],7 µmol/L
same,Creatinine Mean percentage CFB,[17],12%
same,Creatinine Mean CFB,[18],6 µmol/L
same,Creatinine Mean percentage CFB,[18],12%
same,Creatinine Mean CFB,[19],0.0 µmol/L
same,Creatinine Mean percentage CFB,[19],0.0%
same,Creatinine Mean CFB,[20],1.4 µmol/L
same,Creatinine Mean percentage CFB,[20],3.0%
same,Creatinine Mean CFB,[21],0.7 µmol/L
same,Creatinine Mean percentage CFB,[21],1.6%
same,Creatinine Mean CFB,[22],0.6 µmol/L
same,Creatinine Mean percentage CFB,[22],2.1%
same,Creatinine Mean CFB,[23],4.2 µmol/L
same,Creatinine Mean percentage CFB,[23],8.2%
same,Creatinine Mean CFB,[24],3.6 µmol/L
same,Creatinine Mean percentage CFB,[24],7.2%
same,Creatinine Mean CFB,[25],4.6 µmol/L
same,Creatinine Mean percentage CFB,[25],8.7%
